What was measured:
Format in all cases: functional, organism-based, Hepacivirus hominis
Hepatitis C virus [1] = assay: Antiviral activity against HCV genotype 1a assessed as replicon RNA level measured after 3 days by real-time PCR method; details: subtype 1a, 72 h
Hepatitis C virus [2] = assay: Antiviral activity against HCV genotype 1b assessed as replicon RNA level measured after 3 days by real-time PCR method; details: 72 h
Hepatitis C virus [3] = assay: Antiviral activity against HCV genotype 2b assessed as replicon RNA level measured after 3 days by real-time PCR method; details: 72 h
Hepatitis C virus [4] = assay: Antiviral activity against HCV genotype 1a harboring NS5A Y93H mutant assessed as replicon RNA level measured after 3 days by real-time PCR method; details: subtype 1a, 72 h
Hepatitis C virus [5] = assay: Antiviral activity against HCV genotype 2a assessed as replicon RNA level measured after 3 days by real-time PCR method; details: 72 h
Hepatitis C virus [6] = assay: Antiviral activity against HCV genotype 3a assessed as replicon RNA level measured after 3 days by real-time PCR method; details: 72 h
Hepatitis C virus [7] = assay: Antiviral activity against HCV genotype 1a harboring NS5A L31V mutant assessed as replicon RNA level measured after 3 days by real-time PCR method; details: subtype 1a, 72 h
Hepatitis C virus [8] = assay: Antiviral activity against HCV genotype 4a assessed as replicon RNA level measured after 3 days by real-time PCR method; details: 72 h

## COC(=O)N[C@H](C(=O)N1CCC[C@H]1c1ncc(-c2ccc3c(c2)OC(c2cccc(OC4CCCCC4)c2)n2c-3cc3cc(-c4cnc([C@@H]5CCCN5C(=O)[C@@H](NC(=O)OC)C(C)C)[nH]4)ccc32)[nH]1)C(C)C (mixture of isomers)
Hepatitis C virus [1]
  EC50: 0.01 nM
Hepatitis C virus [2]
  EC50: 7 pM
Hepatitis C virus [3]
  EC50: 7 nM
Hepatitis C virus [4]
  EC50: 3 nM

## COC(=O)N[C@H](C(=O)N1CCC[C@H]1c1ncc(-c2ccc3c(c2)OC(c2cccc(-c4cn[nH]c4)c2)n2c-3cc3cc(-c4cnc([C@@H]5CCCN5C(=O)[C@@H](NC(=O)OC)C(C)C)[nH]4)ccc32)[nH]1)C(C)C (mixture of isomers)
Hepatitis C virus [1]
  EC50: 0.01 nM
Hepatitis C virus [5]
  EC50: 0.03 nM
Hepatitis C virus [3]
  EC50: 25 nM
Hepatitis C virus [6]
  EC50: 0.2 nM
Hepatitis C virus [4]
  EC50: 101 nM
Hepatitis C virus [7]
  EC50: 10 nM

## COC(=O)N[C@H](C(=O)N1CCC[C@H]1c1ncc(-c2ccc3c(c2)OC(c2ccc(-c4ccc5cncn5c4)cc2)n2c-3cc3cc(-c4cnc([C@@H]5CCCN5C(=O)[C@@H](NC(=O)OC)C(C)C)[nH]4)ccc32)[nH]1)C(C)C (mixture of isomers)
Hepatitis C virus [1]
  EC50: 0.03 nM
Hepatitis C virus [2]
  EC50: 10 pM
Hepatitis C virus [5]
  EC50: 0.04 nM
Hepatitis C virus [3]
  EC50: 4 nM
Hepatitis C virus [6]
  EC50: 1 nM
Hepatitis C virus [8]
  EC50: 0.03 nM
Hepatitis C virus [4]
  EC50: 20 nM
Hepatitis C virus [7]
  EC50: 2 nM

## COC(=O)N[C@H](C(=O)N1CCC[C@H]1c1ncc(-c2ccc3c(c2)OC(c2ccc(F)cc2)n2c-3cc3cc(-c4cnc([C@@H]5CCCN5C(=O)[C@@H](NC(=O)OC)C(C)C)[nH]4)ccc32)[nH]1)C(C)C (stereo partly drawn)
Hepatitis C virus [1]
  EC50: 0.003 nM
Hepatitis C virus [2]
  EC50: 6 pM
Hepatitis C virus [5]
  EC50: 0.002 nM
Hepatitis C virus [3]
  EC50: 2 nM
Hepatitis C virus [6]
  EC50: 0.06 nM
Hepatitis C virus [8]
  EC50: 0.01 nM
Hepatitis C virus [4]
  EC50: 5 nM

## COC(=O)N[C@H](C(=O)N1CCC[C@H]1c1ncc(-c2ccc3c(c2)OC(c2ccc(-c4c(C)nn(C)c4C)cc2)n2c-3cc3cc(-c4cnc([C@@H]5CCCN5C(=O)[C@@H](NC(=O)OC)C(C)C)[nH]4)ccc32)[nH]1)C(C)C (mixture of isomers)
Hepatitis C virus [1]
  EC50: 0.04 nM
Hepatitis C virus [2]
  EC50: 20 pM
Hepatitis C virus [5]
  EC50: 0.02 nM
Hepatitis C virus [3]
  EC50: 5 nM
Hepatitis C virus [6]
  EC50: 0.2 nM
Hepatitis C virus [8]
  EC50: 0.03 nM
Hepatitis C virus [4]
  EC50: 15 nM
Hepatitis C virus [7]
  EC50: < 2 nM

## COC(=O)N[C@H](C(=O)N1CCC[C@H]1c1ncc(-c2ccc3c(c2)OC(c2ccc(C)cc2)n2c-3cc3cc(-c4cnc([C@@H]5CCCN5C(=O)[C@@H](NC(=O)OC)C(C)C)[nH]4)ccc32)[nH]1)C(C)C (stereo partly drawn)
Hepatitis C virus [1]
  EC50: 0.01 nM
Hepatitis C virus [2]
  EC50: 6 pM
Hepatitis C virus [5]
  EC50: 0.01 nM
Hepatitis C virus [6]
  EC50: 0.5 nM
Hepatitis C virus [8]
  EC50: 0.7 nM
Hepatitis C virus [4]
  EC50: 5 nM
Hepatitis C virus [7]
  EC50: 4 nM

## COC(=O)N[C@H](C(=O)N1CCC[C@H]1c1ncc(-c2ccc3c(c2)OC(c2ccc(F)c(F)c2)n2c-3cc3cc(-c4cnc([C@@H]5CCCN5C(=O)[C@@H](NC(=O)OC)C(C)C)[nH]4)ccc32)[nH]1)C(C)C (stereo partly drawn)
Hepatitis C virus [1]
  EC50: 0.004 nM
Hepatitis C virus [2]
  EC50: 3 pM
Hepatitis C virus [5]
  EC50: 0.005 nM
Hepatitis C virus [3]
  EC50: 1 nM
Hepatitis C virus [8]
  EC50: 0.008 nM
Hepatitis C virus [4]
  EC50: 3 nM
Hepatitis C virus [7]
  EC50: 0.5 nM

## COC(=O)N[C@H](C(=O)N1CCC[C@H]1c1ncc(-c2ccc3c(c2)OC(c2ccc(C#N)cc2)n2c-3cc3cc(-c4cnc([C@@H]5CCCN5C(=O)[C@@H](NC(=O)OC)C(C)C)[nH]4)ccc32)[nH]1)C(C)C (mixture of isomers)
Hepatitis C virus [1]
  EC50: 0.004 nM
Hepatitis C virus [2]
  EC50: 3 pM
Hepatitis C virus [5]
  EC50: 0.006 nM
Hepatitis C virus [3]
  EC50: 6.5 nM
Hepatitis C virus [6]
  EC50: 0.25 nM
Hepatitis C virus [8]
  EC50: 0.01 nM
Hepatitis C virus [4]
  EC50: 12 nM
Hepatitis C virus [7]
  EC50: 0.6 nM

## COC(=O)N[C@H](C(=O)N1CCC[C@H]1c1ncc(-c2ccc3c(c2)OC(c2ccccn2)n2c-3cc3cc(-c4cnc([C@@H]5CCCN5C(=O)[C@@H](NC(=O)OC)C(C)C)[nH]4)ccc32)[nH]1)C(C)C (mixture of isomers)
Hepatitis C virus [1]
  EC50: 0.009 nM
Hepatitis C virus [2]
  EC50: 10 pM
Hepatitis C virus [5]
  EC50: 0.06 nM
Hepatitis C virus [3]
  EC50: 3 nM
Hepatitis C virus [6]
  EC50: 0.2 nM
Hepatitis C virus [8]
  EC50: 0.02 nM
Hepatitis C virus [4]
  EC50: 31 nM

## COC(=O)N[C@H](C(=O)N1CCC[C@H]1c1ncc(-c2ccc3c(c2)OC(c2ccccc2Cl)n2c-3cc3cc(-c4cnc([C@@H]5CCCN5C(=O)[C@@H](NC(=O)OC)C(C)C)[nH]4)ccc32)[nH]1)C(C)C (stereo partly drawn)
Hepatitis C virus [1]
  EC50: 0.01 nM
Hepatitis C virus [2]
  EC50: 4 pM
Hepatitis C virus [5]
  EC50: 0.04 nM
Hepatitis C virus [6]
  EC50: 2 nM
Hepatitis C virus [8]
  EC50: 0.3 nM
Hepatitis C virus [4]
  EC50: 139 nM
Hepatitis C virus [7]
  EC50: 2 nM

## COC(=O)N[C@H](C(=O)N1CCC[C@H]1c1ncc(-c2ccc3c(c2)OC(c2cccc(C(N)=O)c2)n2c-3cc3cc(-c4cnc([C@@H]5CCCN5C(=O)[C@@H](NC(=O)OC)C(C)C)[nH]4)ccc32)[nH]1)C(C)C (mixture of isomers)
Hepatitis C virus [1]
  EC50: 0.09 nM
Hepatitis C virus [2]
  EC50: 10 pM
Hepatitis C virus [5]
  EC50: 0.51 nM
Hepatitis C virus [3]
  EC50: > 100 nM
Hepatitis C virus [6]
  EC50: > 1 nM
Hepatitis C virus [8]
  EC50: > 1 nM
Hepatitis C virus [4]
  EC50: 19 nM
Hepatitis C virus [7]
  EC50: 7 nM

## COC(=O)N[C@H](C(=O)N1CCC[C@H]1c1ncc(-c2ccc3c(c2)OC(c2cccc(OCC(C)C)c2)n2c-3cc3cc(-c4cnc([C@@H]5CCCN5C(=O)[C@@H](NC(=O)OC)C(C)C)[nH]4)ccc32)[nH]1)C(C)C (mixture of isomers)
Hepatitis C virus [1]
  EC50: 0.01 nM
Hepatitis C virus [2]
  EC50: 4 pM
Hepatitis C virus [3]
  EC50: 12 nM
Hepatitis C virus [6]
  EC50: 0.02 nM
Hepatitis C virus [4]
  EC50: 0.9 nM
Hepatitis C virus [7]
  EC50: 0.2 nM

From ChEMBL document CHEMBL3822455, “Aryl or heteroaryl substituted aminal derivatives of HCV NS5A inhibitor MK-8742” (Bioorg Med Chem Lett, 2016)
